Key:
Type in all cases: functional
[1] = species on record: Mus musculus; test: Antagonistic activity of 100 uM of compound against electrophysiological responses induced by NMDA (10 uM) in culture mouse cortical neurons
[2] = species on record: Mus musculus; test: Tested for antagonistic activity against electrophysiological responses induced by NMDA (10 uM) in culture mouse cortical neurons at 100 uM
[3] = species on record: Mus musculus; test: Antagonistic activity of 10 uM of compound against electrophysiological responses induced by NMDA (10 uM) in culture mouse cortical neurons
[4] = species on record: Mus musculus; test: Tested for antagonistic activity against electrophysiological responses induced by NMDA (10 uM) in culture mouse cortical neurons at 10 uM

Row | SMILES | Inhibition [1] | other results
1 | NC(CC1CCCC(CS(=O)(=O)[O-])C1)C(=O)O.[Na+] (centres undefined) | 50% | 
2 | NC(CC1CCC(CP(=O)(O)O)CC1)C(=O)O (centres undefined) | 18% | 
3 | NC(Cc1ccc(CP(=O)(O)O)cc1)C(=O)O (centres undefined) | 0% | 
4 | NC(Cc1cccc(CC(=O)NO)c1)C(=O)O (centres undefined) |  | Inhibition [2]: 12%
5 | NC(Cc1cccc(CP(=O)(O)O)c1)C(=O)O (centres undefined) | 100% | Inhibition [3]: 80%
6 | NC(Cc1ccccc1CS(=O)(=O)[O-])C(=O)O.[Na+] (centres undefined) | 22% | 
7 | NC(Cc1ccc(CS(=O)(=O)[O-])cc1)C(=O)O.[Na+] (centres undefined) | 0% | 
8 | NC(Cc1ccccc1CP(=O)(O)O)C(=O)O (centres undefined) | 87% | Inhibition [3]: 40%
9 | NC(CC1CCCCC1CS(=O)(=O)[O-])C(=O)O.[Na+] (centres undefined) | 50% | 
10 | NC(CCCP(=O)(O)O)C(=O)O (centres undefined) |  | Inhibition [4]: 68%; Inhibition [2]: 100%
11 | NC(CC1CCCCC1CP(=O)(O)O)C(=O)O (centres undefined) | 75% | 
12 | NC(Cc1cccc(CS(=O)(=O)[O-])c1)C(=O)O.[Na+] (centres undefined) | 0% | 
13 | NC(CC1CCCC(CP(=O)(O)O)C1)C(=O)O (centres undefined) | 90% | Inhibition [3]: 34%
14 | NC(CC1CCC(CS(=O)(=O)[O-])CC1)C(=O)O.[Na+] (centres undefined) | 20% | 
15 | NC(Cc1cccc(CC(=O)O)c1)C(=O)O (centres undefined) | 31% | 

Reference: ChEMBL document CHEMBL1125475, “Preferred antagonist binding state of the NMDA receptor: synthesis, pharmacology, and computer modeling of (phosphonomethyl)phenylalanine derivatives” (1992)
